According to the supplement of paper PMC10307832:

What was measured:
Assay in all cases: relative viability (nuclei count vs DMSO), 5 days (fraction); higher = more cells survive
Axitinib + Vorinostat = compound: CNC(=O)c1ccccc1Sc1ccc2c(/C=C/c3ccccn3)n[nH]c2c1 [Axitinib] + O=C(CCCCCCC(=O)Nc1ccccc1)NO [Vorinostat] (partner 1 µM)
Summary of the method: (§1)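 Relative viability equals treated-well nuclei counts divided by vehicle-well nuclei counts. Counts came from 4× images of lung cancer cell lines grown in 1536-well plates for 5 days after pin-tool dosing on the day after seeding. Dosing used one drug alone or a fixed anchor-drug dose plus five library-drug doses (not always all listed) in √10 steps, and values are medians of duplicate plates.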

Axitinib + Linsitinib = compound: CNC(=O)c1ccccc1Sc1ccc2c(/C=C/c3ccccn3)n[nH]c2c1 [Axitinib] + C[C@]1(O)C[C@@H](c2nc(-c3ccc4ccc(-c5ccccc5)nc4c3)c3c(N)nccn32)C1 [Linsitinib] (partner 1 µM)
Summary of the method: as §1

Axitinib + Palbociclib = compound: CNC(=O)c1ccccc1Sc1ccc2c(/C=C/c3ccccn3)n[nH]c2c1 [Axitinib] + CC(=O)c1c(C)c2cnc(Nc3ccc(N4CCNCC4)cn3)nc2n(C2CCCC2)c1=O [Palbociclib] (partner 0.5 µM)
Summary of the method: as §1

Bemcentinib + Linsitinib = compound: Nc1nc(Nc2ccc3c(c2)CC[C@@H](N2CCCC2)CC3)nn1-c1cc2c(nn1)-c1ccccc1CCC2 [Bemcentinib] + C[C@]1(O)C[C@@H](c2nc(-c3ccc4ccc(-c5ccccc5)nc4c3)c3c(N)nccn32)C1 [Linsitinib] (partner 1 µM)
Summary of the method: as §1

Cell Line | relative viability (Axitinib + Vorinostat; first compound 0.005 µM) | relative viability (Axitinib + Vorinostat; first compound 0.01581 µM) | relative viability (Axitinib + Vorinostat; first compound 0.05 µM) | relative viability (Axitinib + Vorinostat; first compound 0.1581 µM) | relative viability (Axitinib + Vorinostat; first compound 0.5 µM) | relative viability (Axitinib + Linsitinib; first compound 0.005 µM) | relative viability (Axitinib + Linsitinib; first compound 0.01581 µM) | relative viability (Axitinib + Linsitinib; first compound 0.05 µM) | relative viability (Axitinib + Linsitinib; first compound 0.1581 µM) | relative viability (Axitinib + Linsitinib; first compound 0.5 µM) | relative viability (Axitinib + Palbociclib; first compound 0.005 µM) | relative viability (Axitinib + Palbociclib; first compound 0.01581 µM) | relative viability (Axitinib + Palbociclib; first compound 0.05 µM) | relative viability (Axitinib + Palbociclib; first compound 0.1581 µM) | relative viability (Axitinib + Palbociclib; first compound 0.5 µM) | relative viability (Bemcentinib + Linsitinib; first compound 0.04 µM) | relative viability (Bemcentinib + Linsitinib; first compound 0.1265 µM) | relative viability (Bemcentinib + Linsitinib; first compound 0.4 µM) | relative viability (Bemcentinib + Linsitinib; first compound 1.265 µM) | relative viability (Bemcentinib + Linsitinib; first compound 4 µM)
NCI-H3122 | 0.914 | 1.06 | 1.05 | 0.888 | 1.02 | 1.02 | 0.991 | 1.05 | 1.05 | 1.07 | 0.171 | 0.198 | 0.205 | 0.206 | 0.184 | 0.949 | 1.06 | 1.02 | 1.08 | 1
SK-MES-1 | 1.1 | 1.12 | 1.25 | 1.02 | 1.27 | 1.12 | 1.07 | 1.08 | 1.14 | 1.22 | 0.309 | 0.332 | 0.347 | 0.344 | 0.353 | 1.18 | 1.16 | 1.15 | 1.32 | 1.12
NCI-H441 | 0.78 | 0.659 | 0.855 | 0.627 | 0.911 | 0.593 | 0.52 | 0.519 | 0.582 | 0.576 | 0.239 | 0.225 | 0.222 | 0.204 | 0.25 | 0.525 | 0.702 | 0.76 | 0.496 | 0.581
NCI-H2087 | 0.618 | 0.626 | 0.741 | 0.699 | 0.936 | 1.06 | 0.905 | 0.96 | 0.699 | 0.968 | 0.251 | 0.202 | 0.294 | 0.265 | 0.255 | 0.957 | 0.975 | 1.09 | 0.891 | 1.09
RERF-LC-KJ | 0.703 | 0.648 | 0.725 | 0.705 | 0.803 | 0.962 | 0.81 | 0.901 | 0.834 | 0.947 | 1.09 | 1.16 | 1.03 | 1.14 | 1.11 | 0.918 | 0.921 | 0.886 | 0.849 | 1
NCI-H1437 | 0.942 | 0.85 | 0.86 | 0.876 | 0.78 | 1.02 | 1.07 | 1 | 0.898 | 0.797 | 0.353 | 0.283 | 0.346 | 0.307 | 0.313 | 1.03 | 1.14 | 1.16 | 1.12 | 1.18
NCI-H1651 | 0.563 | 0.542 | 0.537 | 0.548 | 0.59 | 1.08 | 0.895 | 0.914 | 0.964 | 1.23 | 0.597 | 0.542 | 0.471 | 0.514 | 0.544 | 0.958 | 0.965 | 1.15 | 1.15 | 1.08
PC-14 | 0.792 | 0.336 | 0.702 | 0.643 | 1.06 | 1.07 | 0.895 | 1.03 | 0.945 | 0.944 | 0.498 | 0.427 | 0.511 | 0.563 | 0.71 | 0.982 | 1.02 | 1.06 | 1.07 | 1.08
NCI-H1666 | 1.07 | 1.14 | 1.02 | 1.09 | 1.11 | 0.926 | 0.917 | 0.786 | 0.8 | 0.912 | 0.689 | 0.606 | 0.653 | 0.631 | 0.657 | 0.932 | 0.872 | 0.958 | 0.972 | 0.707
NCI-H661 | 0.79 | 0.861 | 0.776 | 0.779 | 0.873 | 0.717 | 0.58 | 0.418 | 0.542 | 0.666 | 0.412 | 0.392 | 0.424 | 0.405 | 0.428 | 0.587 | 0.53 | 0.609 | 0.656 | 0.548
LK-2 | 0.343 | 0.292 | 0.209 | 0.301 | 0.232 | 0.543 | 0.471 |  | 0.439 | 0.415 | 0.492 | 0.661 | 0.544 | 0.659 | 0.668 | 0.836 | 0.57 | 0.677 | 0.551 | 1.05
HCC-44 | 1.04 | 1.15 | 1.11 | 1.09 | 1.13 | 0.756 | 0.699 | 0.746 | 0.692 | 0.733 | 0.946 | 0.967 | 0.988 | 0.96 | 1.04 | 0.702 | 0.74 | 0.736 | 0.714 | 0.771
PC-3 [JPC-3] | 0.787 |  | 0.94 | 0.758 | 0.857 | 0.948 |  | 0.972 | 0.944 | 0.986 | 0.558 |  | 0.556 | 0.603 | 0.61 | 0.967 | 0.999 | 0.902 | 0.957 | 1.07
LC-2-ad | 0.67 | 0.722 | 0.736 | 0.713 | 0.685 | 0.843 | 0.844 | 0.887 | 0.833 | 1.01 | 0.473 | 0.532 | 0.485 | 0.503 | 0.523 | 0.831 | 0.851 | 0.835 | 0.888 | 0.894
NCI-H460 | 0.758 | 0.772 | 0.734 | 0.732 | 0.914 | 0.94 | 0.875 | 0.861 | 0.716 | 0.854 | 0.154 | 0.211 | 0.143 | 0.145 | 0.319 | 0.907 | 1.04 | 1.08 | 0.983 | 0.86
NCI-H1395 | 0.706 | 0.529 | 0.709 | 0.639 | 0.649 | 1.2 | 0.913 | 1.37 | 0.97 | 1.18 | 0.594 | 0.509 | 0.507 | 0.579 | 0.711 | 1.06 | 1.21 | 1.01 | 1.48 | 0.962
